4 compounds from PubChem BioAssay (NCI) can be followed below.

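Tested at 5 concentrations; 48 h exposure; 96-well plates; endpoints linearly interpolated, else capped at highest concentration. The concentration for 50% growth inhibition is given as GI50. TGI is the concentration that stops growth completely.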 A value given as a limit tells only on which side of the number the result lay.

For the first assay, the system named is 786-0 renal. The assay can be described thus: growth of human tumour cells (NCI), 48 h.
Turning to `Cc1ccc(S(=O)(=O)OCC(=O)O)cc1`, the TGI is above 100 µM.
Still for that read-out and setting: the value for `O=c1[nH]cnc2cccc(Cl)c12` was above 100 µM.
For `C=C1C(=O)CC2C(=O)C(C)(O)CC/C=C(\C)C(=O)CC12` (stereo unspecified), the TGI came to 35.6 µM.
`C[C@]12CC[C@H](O)C[C@H]1CC[C@@H]1[C@@H]2CC[C@]2(C)[C@@H](C3=CC(=O)OC3)CC[C@]12O`: the GI50 is 0.0337 µM and the TGI was 0.142 µM.

The test system of the next assay is A498 renal. Put plainly: growth of human tumour cells (NCI), 48 h.
Turning to `Cc1ccc(S(=O)(=O)OCC(=O)O)cc1`, the TGI was above 100 µM.
On the same count and under the same terms, the value for `O=c1[nH]cnc2cccc(Cl)c12` was above 100 µM.
The same measure, in the same setting: the value for `C=C1C(=O)CC2C(=O)C(C)(O)CC/C=C(\C)C(=O)CC12` (stereo unspecified) was above 100 µM.
As for `C[C@]12CC[C@H](O)C[C@H]1CC[C@@H]1[C@@H]2CC[C@]2(C)[C@@H](C3=CC(=O)OC3)CC[C@]12O`, the GI50 is 0.0591 µM and the TGI amounted to 0.378 µM.

Another assay concerns A549 NSCLC. Put plainly: growth of human tumour cells (NCI), 48 h.
In turn, `Cc1ccc(S(=O)(=O)OCC(=O)O)cc1` came in with a TGI above 100 µM.
Still for that read-out and setting: for `O=c1[nH]cnc2cccc(Cl)c12` the value was above 100 µM; for `C=C1C(=O)CC2C(=O)C(C)(O)CC/C=C(\C)C(=O)CC12` (stereo unspecified), above 100 µM.
Turning to `C[C@]12CC[C@H](O)C[C@H]1CC[C@@H]1[C@@H]2CC[C@]2(C)[C@@H](C3=CC(=O)OC3)CC[C@]12O`, the TGI worked out at 0.0456 µM.

In another assay the test system is ACHN renal. The assay can be described thus: growth of human tumour cells (NCI), 48 h.
`Cc1ccc(S(=O)(=O)OCC(=O)O)cc1` gave a TGI above 100 µM.
The same measure, in the same setting: for `O=c1[nH]cnc2cccc(Cl)c12` the value was above 100 µM.
`C=C1C(=O)CC2C(=O)C(C)(O)CC/C=C(\C)C(=O)CC12` (stereo unspecified) registered a TGI of 27.3 µM.
On the same count and under the same terms, for `C[C@]12CC[C@H](O)C[C@H]1CC[C@@H]1[C@@H]2CC[C@]2(C)[C@@H](C3=CC(=O)OC3)CC[C@]12O` the value was 0.825 µM.

The subject of another assay is BT-549 breast. The assay can be described thus: growth of human tumour cells (NCI), 48 h.
For the compound `Cc1ccc(S(=O)(=O)OCC(=O)O)cc1`, the TGI is above 100 µM.
`O=c1[nH]cnc2cccc(Cl)c12`: the TGI is above 100 µM.
On the same count and under the same terms, for `C=C1C(=O)CC2C(=O)C(C)(O)CC/C=C(\C)C(=O)CC12` (stereo unspecified) the value was 35.5 µM; for `C[C@]12CC[C@H](O)C[C@H]1CC[C@@H]1[C@@H]2CC[C@]2(C)[C@@H](C3=CC(=O)OC3)CC[C@]12O`, 0.134 µM.

A further assay concerns CAKI-1 renal. Put plainly: growth of human tumour cells (NCI), 48 h.
With `Cc1ccc(S(=O)(=O)OCC(=O)O)cc1`, the TGI was above 100 µM.
Still for that read-out and setting: the value for `O=c1[nH]cnc2cccc(Cl)c12` was above 100 µM; that for `C=C1C(=O)CC2C(=O)C(C)(O)CC/C=C(\C)C(=O)CC12` (stereo unspecified) was 7.98 µM.
The same measure, in the same setting: for `C[C@]12CC[C@H](O)C[C@H]1CC[C@@H]1[C@@H]2CC[C@]2(C)[C@@H](C3=CC(=O)OC3)CC[C@]12O` the value was 0.18 µM.

Another assay relates to CCRF-CEM leukemia. The assay can be described thus: growth of human tumour cells (NCI), 48 h.
Compound `Cc1ccc(S(=O)(=O)OCC(=O)O)cc1` yielded a TGI above 100 µM.
Take `O=c1[nH]cnc2cccc(Cl)c12`: the TGI is above 100 µM.
The compound `C=C1C(=O)CC2C(=O)C(C)(O)CC/C=C(\C)C(=O)CC12` (stereo unspecified) returned a TGI of 23.5 µM.
Same read-out and setting: the value for `C[C@]12CC[C@H](O)C[C@H]1CC[C@@H]1[C@@H]2CC[C@]2(C)[C@@H](C3=CC(=O)OC3)CC[C@]12O` was 44.4 µM.

The test system of a further assay is COLO 205 colon. Put plainly: growth of human tumour cells (NCI), 48 h.
In turn, `O=c1[nH]cnc2cccc(Cl)c12` had a TGI above 100 µM.
The compound `C=C1C(=O)CC2C(=O)C(C)(O)CC/C=C(\C)C(=O)CC12` (stereo unspecified) registered a TGI of 27.4 µM.
On to `C[C@]12CC[C@H](O)C[C@H]1CC[C@@H]1[C@@H]2CC[C@]2(C)[C@@H](C3=CC(=O)OC3)CC[C@]12O`, for which the TGI was found to be 2.32 µM.

A further assay relates to DU-145 prostate. The assay can be described thus: growth of human tumour cells (NCI), 48 h.
As to `Cc1ccc(S(=O)(=O)OCC(=O)O)cc1`, the TGI was above 100 µM.
For `O=c1[nH]cnc2cccc(Cl)c12`, the TGI is above 100 µM.
The compound `C=C1C(=O)CC2C(=O)C(C)(O)CC/C=C(\C)C(=O)CC12` (stereo unspecified) came in with a TGI of 42.2 µM.
Turning to `C[C@]12CC[C@H](O)C[C@H]1CC[C@@H]1[C@@H]2CC[C@]2(C)[C@@H](C3=CC(=O)OC3)CC[C@]12O`, the GI50 is 0.0325 µM and the TGI was 0.146 µM.

A further assay concerns EKVX NSCLC. The assay can be described thus: growth of human tumour cells (NCI), 48 h.
Take `Cc1ccc(S(=O)(=O)OCC(=O)O)cc1`: the TGI is above 100 µM.
Still for that read-out and setting: the value for `O=c1[nH]cnc2cccc(Cl)c12` was above 100 µM.
With `C=C1C(=O)CC2C(=O)C(C)(O)CC/C=C(\C)C(=O)CC12` (stereo unspecified), the TGI turned out to be 53.9 µM.
The same measure, in the same setting: the value for `C[C@]12CC[C@H](O)C[C@H]1CC[C@@H]1[C@@H]2CC[C@]2(C)[C@@H](C3=CC(=O)OC3)CC[C@]12O` was 0.433 µM.

In a further assay the test system is HCC-2998 colon. The assay can be described thus: growth of human tumour cells (NCI), 48 h.
As to `O=c1[nH]cnc2cccc(Cl)c12`, the TGI was above 100 µM.
Same read-out and setting: for `C=C1C(=O)CC2C(=O)C(C)(O)CC/C=C(\C)C(=O)CC12` (stereo unspecified) the value was above 100 µM.
`C[C@]12CC[C@H](O)C[C@H]1CC[C@@H]1[C@@H]2CC[C@]2(C)[C@@H](C3=CC(=O)OC3)CC[C@]12O` displayed a TGI of 0.675 µM.

A further assay has as its system HCT-116 colon. Put plainly: growth of human tumour cells (NCI), 48 h.
Take `Cc1ccc(S(=O)(=O)OCC(=O)O)cc1`: the TGI is above 100 µM.
Same read-out and setting: the value for `O=c1[nH]cnc2cccc(Cl)c12` was above 100 µM; that for `C=C1C(=O)CC2C(=O)C(C)(O)CC/C=C(\C)C(=O)CC12` (stereo unspecified) was 23 µM; that for `C[C@]12CC[C@H](O)C[C@H]1CC[C@@H]1[C@@H]2CC[C@]2(C)[C@@H](C3=CC(=O)OC3)CC[C@]12O` was 0.0663 µM.

The subject of the next assay is HCT-15 colon. Put plainly: growth of human tumour cells (NCI), 48 h.
Regarding `Cc1ccc(S(=O)(=O)OCC(=O)O)cc1`, the TGI was above 100 µM.
As for `O=c1[nH]cnc2cccc(Cl)c12`, the TGI is above 100 µM.
`C=C1C(=O)CC2C(=O)C(C)(O)CC/C=C(\C)C(=O)CC12` (stereo unspecified) showed a TGI of 37.7 µM.
For the compound `C[C@]12CC[C@H](O)C[C@H]1CC[C@@H]1[C@@H]2CC[C@]2(C)[C@@H](C3=CC(=O)OC3)CC[C@]12O`, the TGI was 0.316 µM.

A further assay relates to HL-60(TB) leukemia. The assay can be described thus: growth of human tumour cells (NCI), 48 h.
`Cc1ccc(S(=O)(=O)OCC(=O)O)cc1` returned a TGI above 100 µM.
Same read-out and setting: for `O=c1[nH]cnc2cccc(Cl)c12` the value was above 100 µM; for `C=C1C(=O)CC2C(=O)C(C)(O)CC/C=C(\C)C(=O)CC12` (stereo unspecified), 8.87 µM.
